Among the data in ChEMBL document CHEMBL1201862, “PubChem BioAssay data set” (2004) are EC50 values, retold here.

Calls of active or inactive are those of the source. No stated cut-off is given here; in the data, actives have a measured EC50 and inactives only a lower limit. A value given as a limit tells only on which side of the number the result lay.

Test [1] is described as follows: fluconazole-exposed Candida albicans growth modulators – fluorescence, retest, confirmation (AID 2467). The test is classed as functional, cell-based.
In test [2] the test system is Streptococcus sp. 'group A'. The experiment in a line: Streptococcus pyogenes SK(-)GAS viability under kanamycin – luminescence, BacTiterGlo, confirmation, counter-screen for streptokinase expression inhibitor project, dose response (AID 1900). The test is classed as functional, organism-based.
Test [3] can be described thus: NIH-3T3 fibroblast cytotoxicity, dose response, cytotoxicity control, cell-based, fluorescence, Alamar Blue, secondary assay (AID 2327).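 Further: NIH-3T3 mouse fibroblasts cultured with fluconazole at 8 µg/mL.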 The test is classed as functional. A general note: Resazurin is reduced to fluorescent resorufin, in cell work by metabolically active cells.
The subject of the next test is Streptococcus. The test can be described thus: GAS UMAA2166 growth inhibition – luminescence, BacTiterGlo, counter-screen for streptokinase expression inhibitor project, dose response (AID 1915).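 Further: potency for reduction of bacterial viability or growth.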 The test is classed as functional, organism-based. As to conditions: read-out: EC50. On the technique in general: The purpose of a counterscreen is to sort out artefacts and off-target activity.

With `Cc1cccc(-n2nc(C(=O)c3ccco3)cc(-c3nc4ccccc4[nH]3)c2=N)c1`, the EC50 in test [1] is > 38 µM (not active); in test [2], 2.49 µM (active); in test [3] it was > 160 µM (inactive); in the test with Streptococcus, 5.95 µM (active).

For `COc1ccc(C(=O)NCCN2CCOCC2)c(OC)c1OC`, the EC50 in test [1] is > 38 µM (not active); in test [3] it was > 150 µM (inactive).

Take `CCOC(=O)C(CC)/C(C)=N\NC(=O)c1ccccc1O` (stereo not given): the EC50 in test [1] is > 38 µM (not active); in test [3], > 160 µM (inactive).

Regarding `Cc1ccc2c(ccc[n+]2CC(=O)c2ccccc2)c1`, the figures for the concentration giving a half-maximal response (EC50) in test [1] and in test [3] were > 38 µM (not active) and > 150 µM (inactive), respectively.

Take `O=C(CCS(=O)(=O)c1cccc2nsnc12)N1CCN(C(=O)c2ccco2)CC1`: the EC50 in test [1] is > 38 µM (not active); in test [3] it was > 160 µM (inactive).

As to `CSc1ccc(/C=C/C(=O)Nc2ccccc2)cc1`, the 50% effective concentration (EC50) in test [1] was > 38 µM (not active); in test [3] it was > 150 µM (inactive).

Turning to `Cc1oc(-c2cccs2)nc1CN1CCN(Cc2ccc(F)c(F)c2)C(CCO)C1` (stereo not given), the EC50 is > 38 µM (not active) in test [1] and > 150 µM (inactive) in test [3].

As for `Clc1cccc(N/N=C/c2ccncc2)c1`, the EC50 was > 38 µM (not active) in test [1] and > 160 µM (inactive) in test [3].

As for `O=C(Nc1ccccc1)OCN1C(=O)c2ccccc2C1=O`, the 50% effective concentration (EC50) was > 38 µM (not active) in test [1] and > 150 µM (inactive) in test [3].

By EC50 is commonly meant the concentration at which the effect is half-maximal.
